# Source: paper PMC3402552 (Journal of Medicinal Chemistry, 2012)
# What was measured:
# 5-HT2B = 5-HT2B (Homo sapiens, UniProt P41595); assay: PDSP radioligand competition binding, 5-HT2B; conditions: Figure 9B
# 5-HT2A F6.51L mutant = conditions: cited from earlier work
# 5-HT2A W6.48A mutant = conditions: cited from earlier work
# 5-HT2A S3.36A/C mutant = conditions: S3.36A/C mutations; cited from earlier work
# 5-HT2A F6.52L mutant = conditions: F6.52L mutation; cited from earlier work
# 5-HT2A = 5-HT2A (Homo sapiens, UniProt P28223); assay: PDSP radioligand competition binding, 5-HT2A; conditions: 5-HTR profiling
# Chain of 5-HT2A (P28223 whole entry, species assumed): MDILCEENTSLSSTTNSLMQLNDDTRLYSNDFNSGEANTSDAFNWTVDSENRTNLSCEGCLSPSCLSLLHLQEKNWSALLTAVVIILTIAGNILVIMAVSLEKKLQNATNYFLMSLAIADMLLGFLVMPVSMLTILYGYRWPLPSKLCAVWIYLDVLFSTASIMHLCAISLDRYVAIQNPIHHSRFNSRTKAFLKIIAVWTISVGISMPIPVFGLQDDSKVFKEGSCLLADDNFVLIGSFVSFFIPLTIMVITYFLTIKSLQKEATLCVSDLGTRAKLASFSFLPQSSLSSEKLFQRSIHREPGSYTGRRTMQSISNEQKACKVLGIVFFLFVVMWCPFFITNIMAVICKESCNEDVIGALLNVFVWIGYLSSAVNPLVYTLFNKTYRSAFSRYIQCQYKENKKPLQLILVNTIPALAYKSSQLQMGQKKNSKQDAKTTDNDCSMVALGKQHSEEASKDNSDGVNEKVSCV
# 5-HT1B = 5-HT1B (Homo sapiens, UniProt P28222); assay: PDSP radioligand competition binding, 5-HT1B; conditions: 5-HTR profiling
# Chain of 5-HT1B (P28222 whole entry, species assumed): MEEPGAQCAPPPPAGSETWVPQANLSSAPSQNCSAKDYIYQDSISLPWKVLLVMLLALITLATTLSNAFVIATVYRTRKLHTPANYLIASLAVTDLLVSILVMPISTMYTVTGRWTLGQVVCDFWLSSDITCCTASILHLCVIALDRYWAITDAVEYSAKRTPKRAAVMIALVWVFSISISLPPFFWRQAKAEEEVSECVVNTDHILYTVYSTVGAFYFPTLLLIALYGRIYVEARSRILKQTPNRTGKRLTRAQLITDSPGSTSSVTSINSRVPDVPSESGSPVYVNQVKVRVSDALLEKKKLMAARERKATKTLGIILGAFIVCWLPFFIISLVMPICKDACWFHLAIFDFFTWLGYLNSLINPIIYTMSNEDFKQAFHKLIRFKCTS
# 5-HT1E = 5-HT1E (Homo sapiens, UniProt P28566); assay: PDSP radioligand competition binding, 5-HT1E; conditions: 5-HTR profiling
# Chain of 5-HT1E (P28566 whole entry, species assumed): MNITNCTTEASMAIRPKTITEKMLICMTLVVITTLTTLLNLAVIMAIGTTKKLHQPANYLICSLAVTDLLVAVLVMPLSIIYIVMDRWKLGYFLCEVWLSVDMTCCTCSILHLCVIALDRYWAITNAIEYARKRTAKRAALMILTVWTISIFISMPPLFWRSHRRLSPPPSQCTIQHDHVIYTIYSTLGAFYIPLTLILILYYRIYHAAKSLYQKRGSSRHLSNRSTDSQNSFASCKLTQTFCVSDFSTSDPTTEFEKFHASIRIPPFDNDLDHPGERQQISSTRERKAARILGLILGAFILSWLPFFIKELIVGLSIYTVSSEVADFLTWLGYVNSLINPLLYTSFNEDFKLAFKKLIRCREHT
# 5-HT3 = target: T1, 5-HT3 (Homo sapiens, UniProt P46098); assay: PDSP radioligand competition binding, 5-HT3; conditions: 5-HTR profiling
# T1 sequence (P46098 24-478): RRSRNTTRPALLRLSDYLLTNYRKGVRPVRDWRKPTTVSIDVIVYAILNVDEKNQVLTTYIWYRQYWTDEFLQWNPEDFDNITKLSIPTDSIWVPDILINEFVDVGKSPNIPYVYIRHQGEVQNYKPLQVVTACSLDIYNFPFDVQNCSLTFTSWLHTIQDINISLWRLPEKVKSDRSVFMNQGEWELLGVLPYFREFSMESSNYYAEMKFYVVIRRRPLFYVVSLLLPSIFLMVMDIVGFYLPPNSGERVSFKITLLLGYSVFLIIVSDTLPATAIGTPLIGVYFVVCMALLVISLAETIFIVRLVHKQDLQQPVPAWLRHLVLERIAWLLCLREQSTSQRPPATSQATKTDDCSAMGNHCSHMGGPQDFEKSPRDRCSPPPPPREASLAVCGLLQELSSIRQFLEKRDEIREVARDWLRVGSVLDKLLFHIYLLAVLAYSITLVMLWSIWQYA
# 5-HT1A = target: T2, 5-HT1A (Homo sapiens, UniProt P08908); conditions: 5-HTR profiling
# T2 sequence (P08908 1-422): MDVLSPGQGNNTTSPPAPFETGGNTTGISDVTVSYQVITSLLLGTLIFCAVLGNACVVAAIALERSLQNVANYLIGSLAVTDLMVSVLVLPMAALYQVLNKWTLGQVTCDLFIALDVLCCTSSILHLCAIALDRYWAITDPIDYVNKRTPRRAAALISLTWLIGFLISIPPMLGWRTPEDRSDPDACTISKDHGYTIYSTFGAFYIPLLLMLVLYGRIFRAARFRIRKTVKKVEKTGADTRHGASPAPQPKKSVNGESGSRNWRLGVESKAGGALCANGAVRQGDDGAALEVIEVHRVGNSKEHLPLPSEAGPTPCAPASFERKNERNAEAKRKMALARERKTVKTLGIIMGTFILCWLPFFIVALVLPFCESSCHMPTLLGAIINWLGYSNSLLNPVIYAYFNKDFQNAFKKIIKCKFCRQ
# 5-HT5a = 5-HT5a (Homo sapiens, UniProt P47898); conditions: 5-HTR profiling
# Chain of 5-HT5a (P47898 whole entry, species assumed): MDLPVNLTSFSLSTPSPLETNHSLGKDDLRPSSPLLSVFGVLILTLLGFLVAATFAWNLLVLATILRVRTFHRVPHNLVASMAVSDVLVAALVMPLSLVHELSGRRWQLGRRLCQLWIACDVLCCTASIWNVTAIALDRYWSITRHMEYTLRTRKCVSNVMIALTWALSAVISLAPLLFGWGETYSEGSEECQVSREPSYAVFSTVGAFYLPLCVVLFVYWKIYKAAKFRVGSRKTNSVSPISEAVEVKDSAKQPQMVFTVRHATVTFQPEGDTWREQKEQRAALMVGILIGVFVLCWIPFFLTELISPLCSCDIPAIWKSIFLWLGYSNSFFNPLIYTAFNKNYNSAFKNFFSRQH
# 5-HT6 = 5-HT6 (Homo sapiens, UniProt P50406); conditions: 5-HTR profiling
# Chain of 5-HT6 (P50406 whole entry, species assumed): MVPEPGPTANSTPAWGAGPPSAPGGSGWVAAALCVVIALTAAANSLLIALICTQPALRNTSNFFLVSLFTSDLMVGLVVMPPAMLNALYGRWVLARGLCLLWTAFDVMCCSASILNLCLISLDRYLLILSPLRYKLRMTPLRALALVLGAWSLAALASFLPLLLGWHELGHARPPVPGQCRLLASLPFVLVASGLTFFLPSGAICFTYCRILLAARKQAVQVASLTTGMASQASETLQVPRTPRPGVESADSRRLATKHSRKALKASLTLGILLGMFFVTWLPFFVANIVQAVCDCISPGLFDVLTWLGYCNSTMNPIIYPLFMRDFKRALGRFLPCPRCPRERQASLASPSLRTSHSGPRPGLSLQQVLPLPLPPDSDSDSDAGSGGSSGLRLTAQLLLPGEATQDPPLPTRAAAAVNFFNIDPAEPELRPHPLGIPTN
# 5-HT7 = 5-HT7 (Homo sapiens, UniProt P34969); conditions: 5-HTR profiling
# Chain of 5-HT7 (P34969 whole entry, species assumed): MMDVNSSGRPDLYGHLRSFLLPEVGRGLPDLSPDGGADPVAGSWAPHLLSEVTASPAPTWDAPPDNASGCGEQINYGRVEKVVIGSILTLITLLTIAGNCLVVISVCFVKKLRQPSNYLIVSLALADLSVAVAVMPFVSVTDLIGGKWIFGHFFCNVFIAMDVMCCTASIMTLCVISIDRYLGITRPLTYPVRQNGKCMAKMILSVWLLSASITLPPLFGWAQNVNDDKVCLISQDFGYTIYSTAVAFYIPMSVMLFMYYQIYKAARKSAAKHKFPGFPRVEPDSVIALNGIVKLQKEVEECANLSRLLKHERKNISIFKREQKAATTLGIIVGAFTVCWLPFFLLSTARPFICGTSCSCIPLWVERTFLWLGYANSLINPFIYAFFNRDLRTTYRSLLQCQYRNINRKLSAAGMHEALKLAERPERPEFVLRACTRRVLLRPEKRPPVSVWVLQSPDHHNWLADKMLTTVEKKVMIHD
# Chain of 5-HT2B (P41595 whole entry, species assumed): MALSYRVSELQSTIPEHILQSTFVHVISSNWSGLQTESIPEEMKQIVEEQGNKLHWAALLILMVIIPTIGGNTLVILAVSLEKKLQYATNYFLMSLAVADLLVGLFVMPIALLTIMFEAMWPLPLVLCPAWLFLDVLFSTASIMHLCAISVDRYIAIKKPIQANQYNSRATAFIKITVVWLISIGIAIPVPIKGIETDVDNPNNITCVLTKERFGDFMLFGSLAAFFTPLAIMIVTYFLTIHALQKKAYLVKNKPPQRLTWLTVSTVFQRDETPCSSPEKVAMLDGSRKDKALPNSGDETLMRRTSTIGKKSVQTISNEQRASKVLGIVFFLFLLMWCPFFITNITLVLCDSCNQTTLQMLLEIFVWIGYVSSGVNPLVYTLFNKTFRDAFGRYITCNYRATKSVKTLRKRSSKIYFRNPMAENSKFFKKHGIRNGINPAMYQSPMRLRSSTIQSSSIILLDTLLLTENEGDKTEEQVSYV
smiles,measurement,setting,value
CNC(=O)c1cccc(Oc2ccc(NC(=O)Nc3ccc(Cl)c(C(F)(F)F)c3)cc2)c1 [HN01],change of binding relative to sorafenib (in words),5-HT2B,slight improvement of binding
O=C(c1ccc(F)cc1)C1CCN(CCn2c(=O)[nH]c3ccccc3c2=O)CC1 [ketanserin],decrease of binding by mutation,5-HT2A F6.51L mutant,at least 800 fold
same,decrease of binding by mutation,5-HT2A W6.48A mutant,7 fold
same,effect of mutation on binding affinity (in words),5-HT2A S3.36A/C mutant,almost no effect
same,effect of mutation on binding affinity (in words),5-HT2A F6.52L mutant,almost no effect
CNC(=O)c1cc(Oc2ccc(NC(=O)Nc3ccc(Cl)c(C(F)(F)F)c3)cc2)ccn1 [sorafenib],binding (in words),5-HT2A,weakly binds
same,binding (in words),5-HT1B,doesn’t bind
same,binding (in words),5-HT1E,doesn’t bind
same,binding (in words),5-HT3,doesn’t bind
same,binding (in words),5-HT1A,weakly binds
same,binding (in words),5-HT5a,weakly binds
same,binding (in words),5-HT6,weakly binds
same,binding (in words),5-HT7,weakly binds
